Laboratory results reported in ChEMBL document CHEMBL1149481, “Inhibitors of epidermal growth factor receptor tyrosine kinase: optimisation of potency and in vivo pharmacokinetics” (Bioorg Med Chem Lett, 2006).
Values belong to the compound of their own block, whether it stands above or below them.

What was measured:
Rattus norvegicus [1] = assay: AUC in Wistar rat at 5 mg/kg, po normalized to 1 mg/kg; format: ADME, organism-based, Plasma; details: in vivo
[2] = Bioavailability in Wistar rat at 2 mg/kg, iv and 5 mg/kg, po; format: ADME, organism-based; details: in vivo
[3] = Volume of distribution in Wistar rat at 2 mg/kg, iv and 5 mg/kg, po; format: ADME, organism-based; details: in vivo, read-out: Vdss
[4] = Clearance in Wistar rat at 2 mg/kg, iv and 5 mg/kg, po; format: ADME, organism-based; details: in vivo
Mus musculus [5] = assay: Free drug level in mouse plasma at 50 mg/kg, po at 4 hrs; format: ADME, organism-based; parameters: dose 50 mg/kg, route oral; details: in vivo
Mus musculus [6] = assay: Free drug level in mouse plasma at 50 mg/kg, po at 24 hrs; format: ADME, organism-based; parameters: dose 50 mg/kg, route oral; details: in vivo
[7] = Bioavailability in Wistar rat at 2 mg/kg, iv and 10 mg/kg, po; format: ADME, organism-based; details: in vivo
Mus musculus [8] = assay: Free drug level in mouse plasma at 50 mg/kg, po at 2 hrs; format: ADME, organism-based; parameters: dose 50 mg/kg, route oral; details: in vivo
in vivo = details: Wistar, rat, iv, 2 mg/kg
Mus musculus [9] = assay: Free drug level in mouse plasma at 50 mg/kg, po at 6 hrs; format: ADME, organism-based; parameters: dose 50 mg/kg, route oral; details: in vivo
[10] = Volume of distribution in Wistar rat at 2 mg/kg, iv and 10 mg/kg, po; format: ADME, organism-based; details: in vivo, read-out: Vdss
Rattus norvegicus [11] = assay: AUC in Wistar rat at 10 mg/kg, po normalized to 1 mg/kg; format: ADME, organism-based, Plasma; details: in vivo
[12] = AUC in nude mouse xenografted with human LoVo cell at 50 mg/kg, po, twice daily; format: ADME, organism-based; parameters: dose 50 mg/kg; details: in vivo
[13] = Cmax in nude mouse xenografted with human LoVo cell at 50 mg/kg, po, twice daily; format: ADME, organism-based; parameters: route oral, dose 50 mg/kg; details: in vivo
[14] = Cmax in nude mouse xenografted with human LoVo cell at 100 mg/kg, po; format: ADME, organism-based; parameters: dose 100 mg/kg, route oral; details: in vivo
[15] = Half life in rat; format: ADME, organism-based; details: in vivo
[16] = Cmax in nude mouse xenografted with human LoVo cell at 50 mg/kg, po; format: ADME, organism-based; parameters: dose 50 mg/kg, route oral; details: in vivo
[17] = AUC in nude mouse xenografted with human LoVo cell at 50 mg/kg, po; format: ADME, organism-based; parameters: dose 50 mg/kg, route oral; details: in vivo
[18] = AUC in nude mouse xenografted with human LoVo cell at 100 mg/kg, po; format: ADME, organism-based; parameters: dose 100 mg/kg, route oral; details: in vivo
[19] = Volume of distribution in rat; format: ADME, organism-based; details: in vivo
[20] = Terminal half life in cancer affected human; format: ADME, organism-based; details: in vivo, read-out: beta t1/2 (converted)
[21] = Terminal half life in human; format: ADME, organism-based; details: in vivo, read-out: beta t1/2 (converted)

Compound: COc1cc2ncnc(Nc3cccc(Cl)c3F)c2cc1OCC1CCN(C)CC1
pKa (physchem): 9.3

Compound: COc1cc2ncnc(Nc3cccc(Cl)c3F)c2cc1OC1CCN(C)CC1
AUC (Rattus norvegicus [1]): 0.08 µM·h | pKa (physchem): 8.8 | bioavailability [2]: 74% | Vd [3]: 20.8 L/kg | clearance [4]: 129 mL/min/kg

Compound: COCCN1CCC(Oc2cc3c(Nc4cc(Cl)ccc4F)ncnc3cc2OC)CC1
pKa (physchem): 8.1

Compound: COc1cc2ncnc(Nc3cc(Cl)ccc3F)c2cc1OCC1CCN(C)CC1
pKa (physchem): 9.3

Compound: COc1cc2ncnc(Nc3cccc(Cl)c3F)c2cc1OCCCN1CCOCC1
Cp (Mus musculus [5]): 680 nM | Cp (Mus musculus [6]): 10 nM | bioavailability [7]: 73% | Cp (Mus musculus [8]): 430 nM | clearance (in vivo): 29 mL/min/kg | Cp (Mus musculus [9]): 410 nM | Vd [10]: 4.3 L/kg | AUC (Rattus norvegicus [11]): 0.94 µM·h

Compound: COc1cc2ncnc(Nc3ccc(F)c(Cl)c3)c2cc1OCCCN1CCOCC1 [GEFITINIB]
Cp (Mus musculus [5]): 130 nM | Vd [19]: 5.8 L/kg | Cp (Mus musculus [6]): 10 nM | half-life [20]: 37 h | bioavailability [7]: 56% | Cp (Mus musculus [8]): 260 nM | Cmax [14]: 6700 nM | Cp (Mus musculus [9]): 150 nM | half-life [15]: 7 h | Vd [10]: 5.8 L/kg | Cmax [16]: 8100 nM | AUC (Rattus norvegicus [11]): 0.32 µM·h | half-life [21]: 28 h | AUC [17]: 78.7 µM·h | AUC [18]: 85.9 µM·h

Now from value to compound:

pKa (physchem): 6.7
Compound: COc1cc2ncnc(Nc3cc(Cl)ccc3F)c2cc1OC1CCN(CC(N)=O)CC1

pKa (physchem): 8.8
Compound: COc1cc2ncnc(Nc3cc(Cl)ccc3F)c2cc1OC1CCN(C)CC1

AUC (Rattus norvegicus [1]): 0.95 µM·h | pKa (physchem): 8.1 | bioavailability [2]: 30% | Vd [3]: 1.3 L/kg | clearance [4]: 11 mL/min/kg
Compound: COCCN1CCC(Oc2cc3c(Nc4cccc(Cl)c4F)ncnc3cc2OC)CC1

pKa (physchem): 9.3
Compound: COc1cc2ncnc(Nc3ccc(F)c(Cl)c3)c2cc1OCC1CCN(C)CC1

AUC (Rattus norvegicus [1]): 0.59 µM·h | pKa (physchem): 6.7 | bioavailability [2]: 27% | Vd [3]: 2.7 L/kg | clearance [4]: 16 mL/min/kg
Compound: COc1cc2ncnc(Nc3cccc(Cl)c3F)c2cc1OC1CCN(CC(N)=O)CC1

pKa (physchem): 8.8
Compound: COc1cc2ncnc(Nc3ccc(F)c(Cl)c3)c2cc1OC1CCN(C)CC1

Cp (Mus musculus [5]): 360 nM | Cp (Mus musculus [6]): 0 nM | bioavailability [7]: 71% | Cp (Mus musculus [8]): 300 nM | clearance (in vivo): 16 mL/min/kg | Cp (Mus musculus [9]): 170 nM | Vd [10]: 3.5 L/kg | AUC (Rattus norvegicus [11]): 1.64 µM·h
Compound: COc1cc2ncnc(Nc3cc(Cl)ccc3F)c2cc1OCCCN1CCOCC1

AUC (Rattus norvegicus [1]): 1.18 µM·h | bioavailability [2]: 45% | AUC [12]: 286 µM·h | Cmax [13]: 23900 nM | Cmax [14]: 36800 nM | half-life [15]: 1.6 h | Vd [3]: 1.5 L/kg | Cmax [16]: 30600 nM | AUC [17]: 225 µM·h | AUC [18]: 450 µM·h | clearance [4]: 13 mL/min/kg
Compound: COc1cc2ncnc(Nc3cccc(Cl)c3F)c2cc1OC1CCN(S(C)(=O)=O)CC1

pKa (physchem): 9.3
Compound: COc1cc2c(Nc3ccc(Br)cc3F)ncnc2cc1OCC1CCN(C)CC1 [VANDETANIB]
